Test results as given in patent US20060258750A1, “Use of bicyclo[2.2.1]heptane derivatives for the preparation of neuroprotective pharmaceutical compositions” (priority 2003, published 2006).
“Also recorded” adds a separate entry of the source. Marks after values point to notes of the source that are not given here.

Experiments:
[1] = test system: hippocampal CA1 pyramidal cell death; assay: Global cerebral ischemia by 3 min bilateral carotid artery occlusion (BCO): hippocampal CA1 neuronal damage score; assay type: in vivo, Mongolian gerbils
Experimental: (§1) In our experiments male Mongolian gerbils weighing 50-80 g were used. Deramciclane was administered at 3×30 mg/kg intraperitoneally 60 min before, 30 and 90 min after surgery. Deramciclane was suspended in 0.4% methyl-cellulose solution. In ether narcosis, the right and left common carotid arteries were exposed through an anterior midline cervical incision and isolated from the vagus nerves and the surrounding tissues. Full arrest of carotid blood flow was achieved by tightening an aneurysm clip for 3 min. During surgery the body temperature of the animals was kept at the individual preoperative level (37.5±0.5° C.) with the help of a heating pad and a heating lamp.
After behavioural testing the animals were anesthetized with 60 mg/kg i.p. pentobarbital (10 ml/kg) and perfused through the heart first with saline then with a fixative solution containing 0.1% glutaraldehyde, 4% paraformaldehyde, and 0.2% picric acid in 0.1 M phosphate buffer pH 7.4 for 30 min. The brain was removed from the skull and post-fixed for at least 1 week at 4° C. in the same fixative solution.
Alternate coronal sections of 60 μm thickness were cut from different levels of the dorsal hippocampus by a microtone. The sections were repeatedly washed in 0.1 M phosphate buffer then stained by silver impregnation.
The sections were examined under light microscopy and the overall neuronal damage in the hippocampal CA1 subfield in both hippocampi was scored on a 6-point scale: (0) undamaged, (1)<10%, (2) 10-30%, (3) 30-50%, (4) 50-70%, (5) 70-90%, and (6) 90-100% cell loss. Group differences between drug-treated and vehicle-treated groups were statistically analysed by Mann-Whitney U-test.

[2] = test system: Mongolian gerbils; assay: Global cerebral ischemia (BCO): locomotor activity in symmetrical Y-maze four days after surgery; assay type: in vivo
Experimental: as §1
The Mongolian gerbils were placed in the centre of the maze then the number of entries into the three arms was recorded for 5 min. By definition, the animal performed an arm entry when it entered the arm and proceeded at least the distance of its body length. The gerbil was considered to exit the arm when it left it fully. Differences between groups were statistically evaluated by Kruskal-Wallis ANOVA. In case of p<0.05 significance Mann-Whitney U-test was used for paired comparisons.

[3] = 1 and 10 mg/kg after oral administration; cited from earlier work
[4] = single 0.7 mg/kg oral treatment; cited from earlier work
[5] = single oral dose of 3 mg/kg; cited from earlier work
[6] = 10 and 30 mg/kg after oral treatment; cited from earlier work
[7] = cited from earlier work
[8] = 1 and 10 mg/kg ip.; cited from earlier work
[9] = target: central 5-HT2C receptors (Homo sapiens, UniProt P28335); conditions: cited from earlier work
[10] = target: central 5-HT2A receptors (Homo sapiens, UniProt P28223); conditions: cited from earlier work
[11] = test system: brain damage after transient global cerebral ischaemia; conditions: global cerebral ischaemia in gerbils; cited from earlier work
[12] = 3 × 30 mg/kg i.p., compared to the BCO group
[13] = in the applied dose (3 × 30 mg/kg i.p.)

Chain of central 5-HT2A receptors (P28223 whole entry): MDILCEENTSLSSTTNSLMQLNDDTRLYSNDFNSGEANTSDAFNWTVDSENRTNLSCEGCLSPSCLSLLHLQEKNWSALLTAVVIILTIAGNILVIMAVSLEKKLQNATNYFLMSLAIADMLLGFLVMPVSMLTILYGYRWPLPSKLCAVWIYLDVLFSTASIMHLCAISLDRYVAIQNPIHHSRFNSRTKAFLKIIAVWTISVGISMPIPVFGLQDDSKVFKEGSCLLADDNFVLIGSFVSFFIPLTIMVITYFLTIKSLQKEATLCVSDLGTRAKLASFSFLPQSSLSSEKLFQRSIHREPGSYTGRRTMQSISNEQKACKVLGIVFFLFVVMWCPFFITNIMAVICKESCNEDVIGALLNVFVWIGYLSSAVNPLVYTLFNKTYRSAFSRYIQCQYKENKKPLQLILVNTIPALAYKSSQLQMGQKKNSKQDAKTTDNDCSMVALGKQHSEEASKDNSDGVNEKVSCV
Chain of central 5-HT2C receptors (P28335 33-458): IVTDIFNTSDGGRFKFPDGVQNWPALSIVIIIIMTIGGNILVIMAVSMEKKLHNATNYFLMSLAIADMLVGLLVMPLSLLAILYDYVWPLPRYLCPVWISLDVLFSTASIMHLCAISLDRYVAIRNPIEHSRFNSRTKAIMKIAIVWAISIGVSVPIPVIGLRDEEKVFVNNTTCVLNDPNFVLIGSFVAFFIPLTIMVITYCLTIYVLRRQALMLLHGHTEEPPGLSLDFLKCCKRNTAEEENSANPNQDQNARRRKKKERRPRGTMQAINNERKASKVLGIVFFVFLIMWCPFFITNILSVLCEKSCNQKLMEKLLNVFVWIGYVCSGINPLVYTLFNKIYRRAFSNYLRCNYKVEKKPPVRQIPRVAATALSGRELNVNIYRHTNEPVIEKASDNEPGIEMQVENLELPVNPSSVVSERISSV

Q: Which results are given for `CN(C)CCO[C@]1(c2ccccc2)C[C@H]2CC[C@]1(C)C2(C)C` [deramciclane, (1R,2S,4R)-(−)-2-(2-dimethylaminoethoxy)-2-phenyl-1,7,7-trimethyl-bicyclo[2.2.1]heptane]?
A: CA1 cell death (score) ([1]; 3 × 30 mg/kg i.p. (60 min before, 30 and 90 min after surgery), 6-point scale 0-6, BCO control 4.90): 0.89** score; Effect % (CA1 cell death) [1, 12]: −82%; proportion of cell death in the hippocampal CA1 region (in words) [1, 13]: significantly reduced; Number of arm entries ([2]; 3 × 30 mg/kg i.p., Y-maze, 5 min, four days after surgery, sham 40.25, BCO 65.44): 38.78**; Effect % (number of arm entries) [2, 12]: −100%; locomotor activity of animals (in words) [2, 13]: decreased the locomotor activity of animals into the normal range; activity in Vogel punished drinking test [3]: active; time spent with social interactions [4]: increased; activity in light-dark test [5]: active; activity in marble burying test [6]: active; anxiety caused by CCK in elevated plus maze test ([7]; CCK-induced anxiety): antagonized; activity in elevated plus maze test ([7]; in vivo): ineffective; antidepressant activity in learned helplessness test [8]: produced antidepressant activity; binding to central 5-HT2C receptors (in words) [9]: binds primarily; binding to central 5-HT2A receptors (in words) [10]: binds primarily

Q: With `Cc1nc2sccn2c(=O)c1CCN1CCC(=C(c2ccc(F)cc2)c2ccc(F)cc2)CC1` [ritanserin] as the compound, how does the neuroprotective activity [11] read?
A: did not show neuroprotective activity; also recorded: did not produce neuroprotective effect
